Data from article PMC8379205, “Bioinspired caries preventive strategy via customizable pellicles of saliva-derived protein/peptide constructs” (Scientific Reports, 2021).
Where two headings read alike, the source gives them in different places. Non-standard residues stand in square brackets, D forms with d. Residues, ends and D or L forms follow the SMILES beside them. No end group written: not given here. pS = N[C@@H](COP(=O)(O)O)C(=O)O

Tests used:
[1] = test system: Streptococcus mutans U159; format: cell-based
Procedure: MICs were assessed for all proteins/peptides against Streptococcus mutants (S. mutans) U159 oral bacteria to identify the lowest concentration at which no bacterial growth is observed. Planktonic bacteria were grown aerobically (10% CO2) in brain heart infusion (BHI) medium (BD BBL™ #211,059, MD, USA) overnight. […] BHI medium was used as a control. Bacteria were inoculated to a final concentration of 3.0 × 10^6 CFU/ml per well. The plates were incubated at 37 °C in a 10% CO2 atmosphere for 24 h under continuous shaking (200 rpm). Absorbance at 620 nm was measured using a microtiter plate reader (BioTek™ SynergyHT, VT, USA).

S. mutans U159 biofilms [2] = assay: Crystal violet (CV) biomass assay on pellicle-coated substrates; format: cell-based, Streptococcus mutans; conditions: no sucrose (NS), 24 h biofilm; for Biovolume / biomass of biofilm (crystal violet): pellicle-coated with 200 μM for 2 h at 37 °C, OD 620 nm, compared to whole saliva; for Biofilm structure (brightfield, crystal violet-stained): polystyrene microtiter plates
Procedure: CV assay was performed to assess the remaining bioburden on pellicle-coated substrates with protein/peptide test groups in comparison to human whole saliva. Microtiter plates and HA discs were used as substrates to be pellicle-coated before growing biofilms. Each substrate was pellicle-coated with 50 μl of 200 μM protein/peptide candidates for 2 h at 37 °C under gentle shaking. Pooled filtered whole saliva and the vehicle were used as positive and negative controls respectively. The unbound protein/peptide/saliva were removed, the adjusted inoculum was dispensed without or with 1% sucrose supplementation and the samples were incubated as mentioned above but without agitation. Next day, the samples were rinsed and stained with 0.1% CV. After 15 min, the stain was rinsed, air dried, and photographed. All formed biofilms were structurally characterized with a bright field inverted microscope (EVOS™ xl core, MA, USA) before dissolving the satin, with 33% acetic acid, and reading at OD 620 nm.

S. mutans U159 biofilms [3] = assay: 2-photon 3D renderings of biofilms grown on pellicle-coated HA discs; format: cell-based, Streptococcus mutans; conditions: 24 h biofilm, cariogenic conditions (1% sucrose), 2-photon 3D volume
Source text: Z-stacks were acquired with the 2-photon microscope (Ultima IV, Prairie Technology Inc., WI, USA) for 3D structural and vitality characterization of biofilms grown on protein/peptide pellicle-coated HA discs. Non-descanned high sensitivity multi-alckali photocatode photomultiplier detectors (R3896, Hamamatsu, Japan) were used to allow visualization of multiple fluorophores located deep within the specimen. The infra-red (IR) laser (MAI TAI, Spectra-Physics, USA), tuned at 870 nm, was operated in pulsed mode using a 20 × NA1.0 water-immersion objective (XLUMPlanFLN, Olympus, Japan) with a 2 mm working distance suitable for deep imaging. Images were compiled and analyzed with FIJI software (Fiji Is Just) ImageJ, version: 2.1.0/1.53c https://imagej.net/Contributors[19].

S. mutans U159 biofilms [4] = assay: Live/dead vitality assay of biofilms on pellicle coatings; format: cell-based, Streptococcus mutans; conditions: NS and WS conditions, HA discs; order Hist3 followed by Hist5, Hist1 and RR14; 3 independent times, n = 5
Procedure: The vitality of grown biofilms was observed alongside their biomass to determine the antimicrobial efficacy of protein/peptide pellicle-coatings against the attached bacteria in the biofilm state. All the steps are the same as mentioned above till the staining step. Working fluorescent solution was prepared by adding 3 μl of SYTO® 9 stain and 3 μl of Propidium iodide stain to 1 ml of filter-sterilized water. The staining solution was added to each sample very gently so as not to disturb the biofilm. After 20 min light-protected incubation, samples were rinsed with 0.9% NaCl and imaged with fluorescent inverted microscope (EVOS™ M5000, MA, USA) using 20 × lens. All assays were conducted 3 independent times with sample size n = 5.

[5] = 2-photon immobilization of fluorescently labelled proteins/peptides on human enamel; format: binding; conditions: FAM-labelled
Source text: This characterization method aimed to monitor the amount of protein/peptide molecules immobilized on enamel in pellicle-mimicking conditions to infer their binding capacity. Z-stacks for pellicle-coated enamel slices were acquired to monitor the immobilization patterns and thus, the binding capacity of fluorescently-labelled proteins/peptides. Enamel samples were ground to 0.5–0.6 mm and polished with 600 silica-grit papers using a polishing machine (Buehler, IL, USA). Samples were then ultrasonicated in a water bath for 20 min, dried and pellicle-coated with fluorescently labeled proteins/peptides as mentioned above. 2-photon images were acquired as aforementioned using 40 × NA 0.8 water immersion objective (LUMPlanFl/IR, Olympus, Japan). Solutions of the tagging molecule (FAM) and the vehicle, 0.01% acetic acid, were used to pellicle-coat the positive and negative controls respectively. The amount of immobilized fluorescent protein/peptide molecules were quantified by calibrating the emitted fluorescence signals[21]^. The mean integrated density was calculated that sums all of the pixels along the acquired z-stacks, 4 images each.

[6] = planktonic S. mutans U159, BHI medium, 3.0 × 10^6 CFU/ml, twofold dilutions 0–512 μM, 37 °C, 10% CO2, 24 h, shaking 200 rpm, absorbance 620 nm

Compound | MIC ([1]; U159, 24 h) | Biovolume / biomass of biofilm (crystal violet) (S. mutans U159 biofilms [2]) | Biofilm thickness (S. mutans U159 biofilms [3]) | MIC [1, 6] | Biofilm structure (brightfield, crystal violet-stained) (S. mutans U159 biofilms [2]) | Dead cells / antimicrobial efficacy in biofilm (Syto-9/propidium iodide) (S. mutans U159 biofilms [4]) | Immobilization capacity on enamel [5]
CC(C)C[C@H](NC(=O)[C@H](Cc1ccccc1)NC(=O)[C@H](CCCCN)NC(=O)[C@H](CCC(=O)O)NC(=O)[C@H](CCC(=O)O)NC(=O)[C@H](CO)NC(=O)[C@H](CO)NC(=O)[C@@H](N)CC(=O)O)C(=O)N[C@@H](CCCNC(=N)N)C(=O)O [DR9/2] (H-DSSEEKFLR-OH) | > 512 µM |  |  |  |  |  | 
CC(C)C[C@H](NC(=O)[C@H](Cc1ccccc1)NC(=O)[C@H](CCCCN)NC(=O)[C@H](CCC(=O)O)NC(=O)[C@H](CCC(=O)O)NC(=O)[C@H](COP(=O)(O)O)NC(=O)[C@H](COP(=O)(O)O)NC(=O)[C@@H](N)CC(=O)O)C(=O)N[C@@H](CCCNC(=N)N)C(=O)O [DR9] (H-D[pS][pS]EEKFLR-OH; N-terminus and C-terminus assumed) | > 512 µM | considerably reduced biomass build-up | 60–65 μm |  |  |  | 
CC(C)C[C@H](NC(=O)[C@H](Cc1ccc(O)cc1)NC(=O)[C@H](CC(N)=O)NC(=O)[C@H](CO)NC(=O)[C@H](CCCNC(=N)N)NC(=O)[C@H](Cc1ccc(O)cc1)NC(=O)CNC(=O)[C@H](CCCNC(=N)N)NC(=O)[C@H](Cc1c[nH]cn1)NC(=O)[C@H](CO)NC(=O)[C@H](Cc1c[nH]cn1)NC(=O)[C@H](Cc1c[nH]cn1)NC(=O)[C@H](CCCCN)NC(=O)[C@H](CCC(=O)O)NC(=O)[C@H](Cc1c[nH]cn1)NC(=O)[C@H](Cc1ccccc1)NC(=O)[C@H](CCCCN)NC(=O)[C@H](CCCNC(=N)N)NC(=O)[C@H](CCCCN)NC(=O)[C@H](Cc1ccc(O)cc1)NC(=O)CNC(=O)[C@H](Cc1c[nH]cn1)NC(=O)[C@H](Cc1c[nH]cn1)NC(=O)[C@H](CCCNC(=N)N)NC(=O)[C@H](CCCCN)NC(=O)[C@H](C)NC(=O)[C@H](Cc1c[nH]cn1)NC(=O)[C@H](CO)NC(=O)[C@@H](N)CC(=O)O)C(=O)N[C@@H](Cc1ccc(O)cc1)C(=O)N[C@@H](CC(=O)O)C(=O)N[C@@H](CC(N)=O)C(=O)O [Histatin3] |  | considerably reduced biomass build-up |  | 128 µM | more dispersed biofilms | Many dead cells | 
N=C(N)NCCC[C@H](NC(=O)[C@H](Cc1ccc(O)cc1)NC(=O)CNC(=O)[C@H](CCCNC(=N)N)NC(=O)[C@H](Cc1c[nH]cn1)NC(=O)[C@H](CO)NC(=O)[C@H](Cc1c[nH]cn1)NC(=O)[C@H](Cc1c[nH]cn1)NC(=O)[C@H](CCCCN)NC(=O)[C@H](CCC(=O)O)NC(=O)[C@H](Cc1c[nH]cn1)NC(=O)[C@H](Cc1ccccc1)NC(=O)[C@H](CCCCN)NC(=O)[C@@H](N)CCCNC(=N)N)C(=O)O [RR14] (H-RKFHEKHHSHRGYR-OH) | 384 µM |  |  |  |  |  | 
DSpSpEEKFLRDSpSpEEKFLR [DR9-DR9, duplicated DR9 construct, domains linked synthetically] |  | highest biovolume |  | > 512 µM | clumps and aggregates |  | 
D[pS][pS]EEKFLRRIGRFGYGYGPYQPVPEQPLYPQPYQPQYQQYTF [Statherin] | > 512 µM | highest biovolume |  |  | clumps and aggregates |  | highest immobilization capacity
Histatin1: native salivary protein, synthesized (DSHEKRHHGYRRKFHEKHHSHREFPFYGDYGSNYLYDN; ends and bridges not checked; UniProt P15515 20-57, looked up) |  | highest biovolume |  | > 512 µM |  | Many dead cells | 
